Experimental data as given in article PMC8761912, “Cryptosporidium parvum Pyruvate Kinase Inhibitors With in vivo Anti-cryptosporidial Efficacy” (Frontiers in Microbiology, 2022).
Read-outs that look alike come from different tables or passages of the source.

Assays:
[1] = target: recombinant CpPyK (rCpPyK) protein (Cryptosporidium parvum, UniProt Q5CSM7); test: rCpPyK enzymatic activity inhibition assay (ATP detection, Cell Titer-Glo luminescence); type: biochemical
Experimental: The in vitro enzymatic activity of the rCpPyK protein was determined by quantitating the amount of ATP produced by the transfer of a phosphate group from phosphoenolpyruvate to adenosine diphosphate (ADP) in the presence of varying concentrations of the recombinant protein (Figure 1A). A typical assay contained 0.5 mM phosphoenolpyruvate, 0.6 mM ADP, 50 mM Tris buffer pH 7.5, 60 mM MgSO4, 100 mM KCl, and varying concentrations of rCpPyK incubated for 3 h at room temperature. The ATP generated was detected in a reaction volume of 50 μl in white opaque-walled 96 well plates by the luciferase-based Cell Titer-Glo 2.0 reagent (Promega) following the manufacturer’s instructions. The enzyme kinetics of rCpPyK were determined by using varying phosphoenolpyruvate (0–8 mM) and ADP (0–2 mM) concentrations in an enzymatic reaction catalyzed by a fixed concentration of the recombinant protein (6 ng/μl). In all assays, reaction mixtures without rCpPyK were included as negative controls. Three independent assays were performed for each experiment, and samples were run in triplicate. The luminescence generated was recorded using a multi-mode microplate reader (Spectra Max iD3; Molecular Devices, United States). GraphPad PRISM® v8 software was used to fit the Michaelis–Menten model directly to the substrate-velocity data to determine the enzymatic kinetic parameters for rCpPyK.
The Diversity Set VI chemical library (Supplementary Table 1) was obtained from the National Cancer Institute (NCI)/Developmental Therapeutics Program (DTP) Open Repository collection of chemical compounds.^1 Compounds were individually reconstituted in molecular biology grade dimethyl sulfoxide (DMSO) from Sigma-Aldrich and stored at −20°C. From the library, 1,424 compounds were screened in 96-well plates using the rCpPyK catalyzed enzyme assay to identify potential CpPyK inhibitors. The reactions were performed in 50 μl reaction volume containing 0.5 mM phosphoenolpyruvate, 0.6 mM ADP, 50 mM Tris buffer pH 7.5, 60 mM MgSO4, 100 mM KCl, and 6 ng/μl of rCpPyK protein with or without compound. The concentration of DMSO in all reaction mixtures was 1% (v/v). Control reactions without rCpPyK protein were included for background subtraction. Following 3 h of incubation at room temperature, an equal volume of the Cell Titer-Glo 2.0 reagent was added to each well, and the luminescence produced was recorded as relative luminescence units (RLU) after 10 min of incubation using a multi-mode microplate reader (Spectra Max iD3; Molecular Devices, United States). The mean percent inhibition (MPI) of rCpPyK activity by each compound was derived by dividing the difference in luminescence (RLU) between the compound-treated wells and the DMSO-treated wells by the luminescence of the DMSO-treated wells and multiplying the product by 100:
(1) MPI=[(MeanRLUDMSO-treated-MeanRLUCompound-treated)÷MeanRLUDMSO-treated]×100.
Half maximal inhibitory concentration (IC50) values were determined by applying a non-linear regression analysis curve fit to the mean dose-response data for varying concentrations of each compound using GraphPad PRISM® v8. Reactions were performed in triplicate and repeated at least thrice.

[2] = In vitro compound cytotoxicity assay (WST-1); type: cell-based; details: human, uninfected HCT-8 cells
Experimental: Compounds were tested for cytotoxicity in human ileocecal colorectal adenocarcinoma cells [HCT-8 (HRT-18); ATCC® CCL-244™, CVCL_2478] by using the cell proliferation reagent WST-1 (Roche) according to the manufacturer’s protocol. The WST-1 assay is a quantitative colorimetric assay for measurement of metabolically active cells. This assay is based on the reduction of the tetrazolium salt (WST-1) by viable cells. About 5 × 10^4 HCT-8 cells were seeded per well in 96-well plates and grown overnight in 200 μl of RPMI-1640 medium (without phenol red) (Gibco) supplemented with 2.5 g/L of glucose, 1 mM sodium pyruvate, 1.5 g/L of sodium bicarbonate, 10% heat-inactivated FBS (Gibco), and 1 × Antibiotic-Antimycotic (Gibco) at 37°C with 5% CO2 in a humidified incubator. Upon reaching 80–90% confluency, cells were treated with the chemical compounds reconstituted in DMSO for 24 h. The volume of DMSO was kept below 1% of the total culture volume in all the wells to avoid DMSO cytotoxicity. Control wells received equivalent volumes of DMSO used in the reconstituted compounds. After 24 h of culture, 10 μl of the WST-1 reagent was added to each well, and the plates were incubated for 1 h at 37°C with 5% CO2 under dark conditions. The plates were shaken thoroughly and 150 μl of the medium from each well was transferred to a new clear flat-bottom black 96-well plate (Corning). Absorbance was read at a test wavelength of 440 nm and a reference wavelength of 690 nm using a multi-mode microplate reader (Spectra Max iD3; Molecular Devices, United States). The mean percent toxicity (MPT) of each compound was derived by dividing the difference in absorbance (OD) between the compound-treated cells and the DMSO-treated cells by the absorbance from the DMSO-treated cells and multiplying the product by 100:
(2) MPT=[(MeanODDMSO-treated-MeanODCompound-treated)÷MeanODDMSO-treated]×100.
The half maximal cytotoxic concentration (CC50) values were determined by using non-linear regression analysis in GraphPad PRISM® v8. Assays were performed in triplicate and repeated three times.

[3] = Physicochemical properties adapted from PubChem; details: based on Supplementary Table 2 properties
Description: Supplementary Table S2. Physicochemical properties of identified CpPyK inhibitors (Adapted from: https://pubchem.ncbi.nlm.nih.gov).
NSC Molecular Molecular Number of Number of Number of Polar number IUPAC name formula weight cLog(p) Hydrogen bond Hydrogen bond rotatable surface donors acceptors bonds area (Å²) […]

[4] = ref https://pubchem.ncbi.nlm.nih.gov, cited from earlier work; for Polar surface area: topological
[5] = 6 ng/μl rCpPyK, 3 h at room temperature, read-out: Enzyme inhibition IC50

Chain of recombinant CpPyK (rCpPyK) protein (Q5CSM7 entry or part of it): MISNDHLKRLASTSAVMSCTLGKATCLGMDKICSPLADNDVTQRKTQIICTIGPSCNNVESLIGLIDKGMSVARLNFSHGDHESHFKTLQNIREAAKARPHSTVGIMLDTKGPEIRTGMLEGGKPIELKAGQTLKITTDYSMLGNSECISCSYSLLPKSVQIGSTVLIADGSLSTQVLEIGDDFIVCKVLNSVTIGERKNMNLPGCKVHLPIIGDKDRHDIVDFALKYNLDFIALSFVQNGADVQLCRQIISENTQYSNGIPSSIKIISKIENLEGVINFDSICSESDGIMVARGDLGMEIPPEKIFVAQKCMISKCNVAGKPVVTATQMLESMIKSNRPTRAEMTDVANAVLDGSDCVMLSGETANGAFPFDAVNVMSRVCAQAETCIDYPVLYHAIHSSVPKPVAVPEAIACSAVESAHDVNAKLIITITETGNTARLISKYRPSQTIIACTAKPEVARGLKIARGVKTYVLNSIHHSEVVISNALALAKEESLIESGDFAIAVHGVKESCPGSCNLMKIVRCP

Row | Structure (SMILES) | IC50 [1] [µM] | CC50 at 24 h [2] [µM] | conformity to Lipinski's and Veber's rules for drug-likeness [3] | Number of Hydrogen bond acceptors [4] | Number of Hydrogen bond donors [4] | Polar surface area [4] [Å²] | IC50 [1, 5] [µM]
1 | c1ccc(-c2nnc(-c3ccccn3)[nH]2)nc1 [NSC234945, 2-(3-pyridin-2-yl-1H-1,2,4-triazol-5-yl)pyridine] | 235 | 432 | conform | 4 | 1 | 67.4 | –
2 | CCOc1ccc(/C=C2\CCc3ccccc3C2=O)cc1 [NSC252172, (2E)-2-[(4-ethoxyphenyl)methylidene]-3,4-dihydronaphthalen-1-one] | – | 266 | conform | 2 | 0 | 26.3 | 123
3 | Cc1cc2c(c(C#N)c1C)NC=NC2C (stereo not drawn) [NSC303244, 4,6,7-trimethyl-1,4-dihydroquinazoline-8-carbonitrile] | – | 660 | conform | 2 | 1 | 48.2 | 243
4 | N#C/C(=C\c1cc(O)c(O)c(O)c1)C(N)=O [NSC638080, (E)-2-cyano-3-(3,4,5-trihydroxyphenyl)prop-2-enamide] | – | 750 | conform | 5 | 4 | 128 | 97.1
